In ChEMBL document CHEMBL4020773, “Identification of quinazoline based inhibitors of IRAK4 for the treatment of inflammation” (Bioorg Med Chem Lett, 2017):

Tests used:
[1] = target: T1, Interleukin-1 receptor-associated kinase 4 (Homo sapiens) (UniProt Q9NWZ3); experiment: Inhibition of IRAK4 in human whole blood assessed as reduction in R848-stimulated TNF alpha production preincubated for 30 mins followed by R848 addition measured after 5 hrs
T1 sequence (whole entry): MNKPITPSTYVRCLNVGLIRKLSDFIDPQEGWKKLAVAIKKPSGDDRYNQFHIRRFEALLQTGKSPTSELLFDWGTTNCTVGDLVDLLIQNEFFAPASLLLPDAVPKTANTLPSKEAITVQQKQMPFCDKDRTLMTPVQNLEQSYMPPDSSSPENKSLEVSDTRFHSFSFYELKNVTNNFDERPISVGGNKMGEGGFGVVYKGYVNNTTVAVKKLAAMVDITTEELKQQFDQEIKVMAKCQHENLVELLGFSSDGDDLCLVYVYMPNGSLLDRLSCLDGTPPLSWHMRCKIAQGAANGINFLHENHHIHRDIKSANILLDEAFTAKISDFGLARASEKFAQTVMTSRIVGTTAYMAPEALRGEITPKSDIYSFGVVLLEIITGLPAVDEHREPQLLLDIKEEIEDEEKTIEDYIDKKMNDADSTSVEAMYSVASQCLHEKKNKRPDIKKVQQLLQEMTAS

[2] = target: T2, Interleukin-1 receptor-associated kinase 4 (Homo sapiens, UniProt Q9NWZ3); experiment: Inhibition of recombinant human full length GST tagged IRAK4 expressed in baculovirus infected Sf9 cells using RP7030 peptide as substrate after 30 mins in presence of ATP by fluorescence polarization assay
T2 sequence (Q9NWZ3 whole entry): T1 sequence (whole entry)

[3] = test system: Rattus norvegicus; experiment: Terminal plasma concentration in Lewis rat at 10 mg/kg, po administered once daily; format: ADME, organism-based; settings: in vivo, read-out: Cp(T)
[4] = Clearance in rat; format: ADME; settings: in vivo
[5] = test system: Rattus norvegicus; experiment: Terminal plasma concentration in Lewis rat at 100 mg/kg, po administered once daily; format: ADME, organism-based; settings: in vivo, read-out: Cp(T)
[6] = test system: Rattus norvegicus; experiment: In-vivo inhibition of IRAK4 in po dosed Lewis rat assessed as reduction in R848-stimulated serum IL-6 secretion administered once daily pretreated for 1 hr followed by R848 challenge measured after 1.5 hrs; format: functional, organism-based
[7] = test system: Rattus norvegicus; experiment: In vivo inhibition of IRAK4 in Lewis rat assessed as reduction in R848-stimulated serum IL-6 secretion at 10 mg/kg, po administered once daily pretreated for 1 hr followed by R848 challenge measured after 1.5 hrs relative to control; format: functional
[8] = test system: Rattus norvegicus; experiment: Terminal plasma concentration in Lewis rat at 3 mg/kg, po administered once daily; format: ADME, organism-based; settings: in vivo, read-out: Cp(T)
[9] = target: T3, Interleukin-1 receptor-associated kinase 4 (Rattus norvegicus, UniProt D4A7K4); experiment: Inhibition of IRAK4 in Lewis rat whole blood assessed as reduction in R848-stimulated TNF alpha production after 4 hrs
T3 sequence (D4A7K4 whole entry): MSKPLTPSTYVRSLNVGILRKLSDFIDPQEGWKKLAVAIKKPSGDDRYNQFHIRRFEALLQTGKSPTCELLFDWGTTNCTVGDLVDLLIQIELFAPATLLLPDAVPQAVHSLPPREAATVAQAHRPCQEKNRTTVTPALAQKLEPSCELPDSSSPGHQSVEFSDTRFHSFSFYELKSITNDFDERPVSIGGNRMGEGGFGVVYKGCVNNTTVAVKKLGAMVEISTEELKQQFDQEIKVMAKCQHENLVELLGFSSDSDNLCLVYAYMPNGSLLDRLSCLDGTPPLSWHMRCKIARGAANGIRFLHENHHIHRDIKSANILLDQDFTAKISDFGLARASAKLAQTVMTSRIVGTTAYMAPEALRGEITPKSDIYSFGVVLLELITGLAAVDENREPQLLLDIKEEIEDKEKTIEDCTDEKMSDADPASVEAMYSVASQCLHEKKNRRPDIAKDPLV

[10] = test system: Rattus norvegicus; experiment: In vivo inhibition of IRAK4 in Lewis rat assessed as reduction in R848-stimulated serum IL-6 secretion at 100 mg/kg, po administered once daily pretreated for 1 hr followed by R848 challenge measured after 1.5 hrs relative to control; format: functional
[11] = Apparent permeability in MDCK cells; format: ADME, cell-based, Canis lupus familiaris; settings: dog
[12] = Oral bioavailability in rat; format: ADME, organism-based; settings: in vivo
[13] = Half life in rat; format: ADME; settings: in vivo
[14] = test system: Rattus norvegicus; experiment: In vivo inhibition of IRAK4 in Lewis rat assessed as reduction in R848-stimulated serum IL-6 secretion at 30 mg/kg, po administered once daily pretreated for 1 hr followed by R848 challenge measured after 1.5 hrs relative to control; format: functional
[15] = test system: Rattus norvegicus; experiment: Terminal plasma concentration in Lewis rat at 30 mg/kg, po administered once daily; format: ADME, organism-based; settings: in vivo, read-out: Cp(T)
[16] = test system: Rattus norvegicus; experiment: In vivo inhibition of IRAK4 in Lewis rat assessed as reduction in R848-stimulated serum IL-6 secretion at 3 mg/kg, po administered once daily pretreated for 1 hr followed by R848 challenge measured after 1.5 hrs relative to control; format: functional

Row | Compound | IC50 [1] [nM] | IC50 [2] [nM] | further results
1 | CN(C)[C@H]1CC[C@H](Nc2ncnc3ccc(C(F)(F)F)cc23)CC1 | 620 | – | –
2 | N#Cc1ccc2ncnc(N[C@H]3CC[C@H](N4CCC(F)CC4)CC3)c2c1 | 100 | – | –
3 | CS(=O)(=O)N1CCN([C@H]2CC[C@H](Nc3ncnc4ccc(C#N)cc34)CC2)CC1 | 330 | – | –
4 | N#Cc1ccc2ncnc(N[C@H]3CC[C@H](N4CCC4)CC3)c2c1 | 620 | 35 | –
5 | N#Cc1ccc2ncnc(N[C@H]3CC[C@H](N)CC3)c2c1 | 1400 | 32 | –
6 | N#Cc1ccc2ncnc(N[C@H]3CC[C@H](N4CCC(F)(F)CC4)CC3)c2c1 | 200 | – | –
7 | N#Cc1ccc2ncnc(N[C@H]3CC[C@H](N4CCOCC4)CC3)c2c1 | 300 | 7 | concentration [3]: 19 µM; clearance [4]: 22 mL/min/kg; concentration [5]: 112 µM; inhibition [6]: Dose-dependent effect; inhibition in vivo at 10 mg/kg [7]: 2%; concentration [8]: 5.7 µM; EC50 [9]: 2300 nM; inhibition in vivo at 100 mg/kg [10]: 91%; Papp [11]: 41 ×10⁻⁶ cm/s; bioavailability [12]: 73%; half-life [13]: 1.3 h; inhibition in vivo at 30 mg/kg [14]: 57%; concentration [15]: 54 µM
8 | COc1ccc2ncnc(N[C@H]3CC[C@H](N(C)C)CC3)c2c1 | 1100 | 16 | –
9 | CNCCCCc1c(-c2cc(C)cc(C)c2)cnc2ccc(-c3cncc(O)c3)cc12 | – | – | Papp [11]: 11 ×10⁻⁶ cm/s
10 | C[C@@H]1C[C@H]2[C@@H]3CCC4=CC(=O)C=C[C@]4(C)[C@@]3(F)[C@@H](O)C[C@]2(C)[C@@]1(O)C(=O)CO [DEXAMETHASONE] | – | – | concentration [8]: 10 µM; inhibition in vivo at 3 mg/kg [16]: 86%
11 | Cc1ccc2ncnc(N[C@H]3CC[C@H](N(C)C)CC3)c2c1 | 1800 | – | –
12 | CN1CCN([C@H]2CC[C@H](Nc3ncnc4ccc(C#N)cc34)CC2)CC1 | 274 | – | –
13 | CN(C)[C@H]1CC[C@H](Nc2ncnc3ccc(Br)cc23)CC1 | 290 | 10 | –
14 | N#Cc1ccc2ncnc(N[C@H]3CC[C@H](N4CCCC4)CC3)c2c1 | 300 | – | –
15 | CN(C)[C@H]1CC[C@H](Oc2ncnc3ccc([N+](=O)[O-])cc23)CC1 | 2000 | 58 | –
16 | CCc1ccc2ncnc(N[C@H]3CC[C@H](N(C)C)CC3)c2c1 | 1200 | 17 | –
17 | CN(C)[C@H]1CC[C@H](Nc2ncnc3ccc(C#N)cc23)CC1 | 770 | – | EC50 [9]: 1700 nM
18 | CN(C)[C@H]1CC[C@H](Nc2ncnc3ccc(C4CC4)cc23)CC1 | 2500 | 12 | –
19 | CN(C)[C@H]1CC[C@H](Nc2ncnc3cc(F)c(F)cc23)CC1 | > 10000 | – | –
20 | CC(C)c1ccc2ncnc(N[C@H]3CC[C@H](N(C)C)CC3)c2c1 | 1100 | 16 | –
